Read-outs that look alike come from different tables or passages of the source. No end group written: not given here.
Assays:
DPP9 [1] = molecular target: T1, DPP9 (Homo sapiens, UniProt Q86TI2); assay: Inhibition of GP-AMC hydrolysis by purified recombinant DPP9 at a single peptide concentration; type: biochemical; conditions: 25 nM DPP9, 0.2 mM GP-AMC
T1 construct: made in house; host or cells: Sf9 insect cells (baculovirus)
Experimental: Accordingly, the peptide is capable of inhibiting the activity of wild-type DPP9 (SEQ ID NO: 6) to a level of 35 to 5% of the activity of wild-type DPP9 (SEQ ID NO: 6) if not inhibited, as determined in an assay using 25 nM purified DPP9, 0.2 mM GP-AMC, and 14 μM of the peptide to be tested, in TB buffer (20 mM Hepes/KOH pH 7.3, 110 mM potassium acetate, 2 mM Mg acetate, 0.5 mM EGTA), supplemented with 0.2% Tween-20, 1 mM dithiothreitol. Release of AMC from GP-AMC is measured using the Appliskan microplate fluorimeter (Thermo Scientific) with 380 nm (excitation) and 480 nm (emission) filters and the Skanit software, and analysed using the Prism software.
(§1) Kinetics assays: Purified recombinant DPP9 (25 nM) was incubated with varying concentrations of GP-AMC, in TB supplemented with 0.2% Tween-20, 1 mM ditiothreitol. For inhibition assays, inhibitory peptides were added directly to the reaction mixture. For activation by SUMO 0.2 mg/ml BSA, was added to the buffer to prevent non specific binding. DPP9 were incubated with 2.5 μM of either SUMO1, SUMO1 E67A, SUMO2 for 2 hour on ice prior to the assay. Alternatively DPP9 was incubated with 1 μM of RanGAP or RanGAP modified with either SUMO1 or SUMO2 for 2 hours prior to the assay. Fluorescence was measured using the Appliskan microplate fluorimeter (Thermo Scientific) with 380 nm (excitation) and 480 nm (emission) filters and the Skanit software, and analysed using the Prism software. Each experiment was performed at least three times, in replicates of four.
To improve the inhibition of DPP9, the inventors tested several peptide libraries composed of truncated variants of the EIL peptide (>80% pure, ordered from Genescript). These peptides were incubated with recombinant DPP9 and analysed GP-AMC hydrolysis. AMC release was then compared to samples containing either DPP9 alone, or the EIL peptide.

DPP9 [2] = molecular target: T1, DPP9; assay: Kinetics assay, Ki for inhibition of DPP9 (GP-AMC hydrolysis); type: biochemical
Experimental: (§2) Enzyme kinetics and the Ki of DPP8 or DPP9 may be determined as follows: 25 nM purified recombinant enzyme (DPP9 or DPP8) are incubated with varying concentrations of GP-AMC ([…] GP-AMC), in TB buffer (20 mM Hepes/KOH pH 7.3, 110 mM potassium acetate, 2 mM Mg acetate, 0.5 mM EGTA), supplemented with 0.2% Tween-20, 1 mM dithiothreitol. Experiments are performed in triplicates. To measure Ki values, for each set of experiments, inhibitory peptides are added to DPP9 or DPP8. Peptide concentrations tested are in the range between 0.04 to 50 μM. Release of AMC from GP-AMC is measured using the Appliskan microplate fluorimeter (Thermo Scientific) with 380 nm (excitation) and 480 nm (emission) filters and the Skanit software, and analysed using the Prism software.
(§3) A&B 25 nM purified recombinant (A) DPP9 or (B) DPP8 were incubated with varying concentrations of the EIL peptide (0, 3.3 μM and 6.6 μM) and tested for hydrolysis of GP-AMC (1000, 500, 250, 125, 0 μM). C. 25 nM DPPIV was tested for the hydrolysis of GP-AMC (500, 250, 125, 0 μM) in the presence of 0 or 13 μM EIL peptide. Fluorescence was measured using the Appliskan microplate fluorimeter (Thermo Scientific) with 380 nm (excitation) and 480 nm (emission) filters and the Skanit software, and analysed using the Prism software. Each experiment was performed at least three times, in replicates of four.
as §1

DPPIV = DPPIV (Homo sapiens, UniProt P27487); assay: GP-AMC hydrolysis by DPPIV in the presence of peptide; type: biochemical; conditions: 25 nM DPPIV, 13 μM peptide
Experimental: Preferably, the peptide is capable of inhibiting the activity by wild-type DPP9 (SEQ ID NO: 6) to a level of 30 to 5%, 29 to 5%, 28 to 5%, 27 to 5%, 26 to 5%, 25 to 5%, 24 to 5%, 23 to 5%, 22 to 5%, 21 to 5%, 20 to 5%, 19 to 5%, 18 to 5%, 17 to 5%, 16 to 5%, 15 to 5%, 14 to 5%, 13 to 5%, 12 to 5%, 11 to 5%, 10 to 5%, 9 to 5%, 8 to 5%, such as 7.5 to 5% of the activity of wild-type DPP9 (SEQ ID NO: 6) if not inhibited. […] Release of AMC from GP-AMC is measured using the Appliskan microplate fluorimeter (Thermo Scientific) with 380 nm (excitation) and 480 nm (emission) filters and the Skanit software, and analysed using the Prism software.
as §3

[3] = system: cytosolic prolyl peptidase activity (HeLa cytosolic fractions); assay: GP-AMC hydrolysis in HeLa cytosolic fractions incubated with peptide; type: biochemical, human
Experimental: HeLa cytosolic fractions were incubated with 0, 27.7 or 55.6 μM peptide EIL, and immediately tested for hydrolysis of varying concentrations of A. GP-AMC or B. R-AMC. Fluorescence was measured using the Appliskan microplate fluorimeter (Thermo Scientific) with 380 nm (excitation) and 480 nm (emission) filters and the Skanit software, and analysed using the Prism software. Each experiment was performed at least three times, in replicates of four.
Since the EIL peptide can displace SUMO1 from a DPP9-SUMO1 or a DPP8-SUMO1 complex (FIG. 2D), the inventors tested whether the EIL peptide would inhibit the association-dependent activation of DPP8 and DPP9 by SUMO1 in cell extracts. For this the inventors incubated cytosolic extracts with the EIL peptide and tested for the hydrolysis of GP-AMC (FIG. 8A). […] For control, the inventors also measured the hydrolysis of R-AMC, which is not a substrate for DPP8 or DPP9 (FIG. 8B).

DPP9-SUMO1 interaction = molecular target: T2, DPP9-SUMO1 interaction (Homo sapiens, UniProt Q86TI2); assay: Peptide competition of DPP9 binding to SUMO1-immobilized beads (pull down); conditions: 500 ng recombinant DPP9, peptide 0.1 mg/ml
T2 construct: made in house; host or cells: DPP9: Sf9 insect cells
Experimental: Ovalbumin (Ov) coupled beads were used for control. Bound proteins were detected by western blotting using specific antibodies. B. Shown is a pull down assay as in A with recombinant DPP9, DPP8, Uba2 or GST-PIAS3. C. Recombinant DPP9 was incubated with 15 mer peptides of a peptide library covering SUMO1 amino acid sequence. The DPP9-peptide solutions were then incubated with SUMO1-immobilized beads. Following extensive washing steps, bound DPP9 was eluted with sample buffer and detected DPP9-specific antibodies. D. Recombinant DPP8 and DPP9 were incubated with SUMO1-immobilized beads. To elute bound proteins, beads were incubated with either SUMO1-peptide 5 (overlapping SIG) or with SUMO1-peptide 9. […] Interacting DPP9 was detected using a DPP9 specific antibody. […] Interacting proteins were eluted with sample buffer and detected using specific antibodies. […]
To study the preferential association of DPP8 and DPP9 with SUMO1 but not SUMO2, the inventors aimed to identify the surfaces on SUMO1 involved in these interactions. First the inventors analysed the interaction of DPP9 with SUMO1 mutants in residues which were previously shown via NMR and crystal structures to interact with SIM containing proteins (Song et al, 2004; Hecker et al, 2006; Reverter & Lima, 2005). […] SUMO1-peptides 5 or 9 were then added and the release of bound DPP8 or DPP9 from the SUMO beads was analysed by SDS-PAGE (FIG. 2D). […]

DPP8 = molecular target: T3, DPP8 (Homo sapiens, UniProt Q6V1X1); assay: Kinetics assay, Ki for inhibition of DPP8 (GP-AMC hydrolysis); type: biochemical
T3 construct: made in house; host or cells: Sf9 insect cells (baculovirus)
Experimental: as §2, §3

[4] = 10 μM peptide, DPP9 alone = 100.3
[5] = 14 μM peptide, no peptide = 100
[6] = 25 nM DPP9, 0, 5 or 20 μM peptide, GP-AMC 0-500 μM, read-out: Ki (μM) for inhibition of DPP9

T1 sequence (Q86TI2 1-892 isoform Q86TI2-2): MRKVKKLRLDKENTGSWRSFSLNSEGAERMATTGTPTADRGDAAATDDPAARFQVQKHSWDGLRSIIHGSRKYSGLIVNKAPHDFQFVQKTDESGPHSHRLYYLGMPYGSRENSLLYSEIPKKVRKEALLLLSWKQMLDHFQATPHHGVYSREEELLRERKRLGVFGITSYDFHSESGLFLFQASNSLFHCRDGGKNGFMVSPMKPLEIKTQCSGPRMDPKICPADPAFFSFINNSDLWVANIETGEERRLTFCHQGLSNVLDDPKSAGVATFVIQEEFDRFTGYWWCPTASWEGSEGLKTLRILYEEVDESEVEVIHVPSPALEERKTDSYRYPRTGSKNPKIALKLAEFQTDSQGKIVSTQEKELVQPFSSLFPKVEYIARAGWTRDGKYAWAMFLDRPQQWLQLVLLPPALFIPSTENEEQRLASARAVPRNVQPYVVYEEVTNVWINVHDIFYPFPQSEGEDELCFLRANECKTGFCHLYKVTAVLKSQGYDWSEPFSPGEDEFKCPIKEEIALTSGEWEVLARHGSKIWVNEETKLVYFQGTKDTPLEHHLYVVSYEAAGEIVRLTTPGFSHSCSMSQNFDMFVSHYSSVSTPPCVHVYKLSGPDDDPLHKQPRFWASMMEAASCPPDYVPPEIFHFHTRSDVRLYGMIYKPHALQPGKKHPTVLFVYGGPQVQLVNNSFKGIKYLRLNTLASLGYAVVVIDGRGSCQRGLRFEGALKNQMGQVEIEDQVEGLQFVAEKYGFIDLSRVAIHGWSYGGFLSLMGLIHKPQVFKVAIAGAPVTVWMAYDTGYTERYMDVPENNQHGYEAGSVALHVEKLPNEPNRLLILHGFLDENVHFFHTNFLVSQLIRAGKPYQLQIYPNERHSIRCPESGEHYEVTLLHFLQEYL
DPPIV, sequence (P27487 whole entry): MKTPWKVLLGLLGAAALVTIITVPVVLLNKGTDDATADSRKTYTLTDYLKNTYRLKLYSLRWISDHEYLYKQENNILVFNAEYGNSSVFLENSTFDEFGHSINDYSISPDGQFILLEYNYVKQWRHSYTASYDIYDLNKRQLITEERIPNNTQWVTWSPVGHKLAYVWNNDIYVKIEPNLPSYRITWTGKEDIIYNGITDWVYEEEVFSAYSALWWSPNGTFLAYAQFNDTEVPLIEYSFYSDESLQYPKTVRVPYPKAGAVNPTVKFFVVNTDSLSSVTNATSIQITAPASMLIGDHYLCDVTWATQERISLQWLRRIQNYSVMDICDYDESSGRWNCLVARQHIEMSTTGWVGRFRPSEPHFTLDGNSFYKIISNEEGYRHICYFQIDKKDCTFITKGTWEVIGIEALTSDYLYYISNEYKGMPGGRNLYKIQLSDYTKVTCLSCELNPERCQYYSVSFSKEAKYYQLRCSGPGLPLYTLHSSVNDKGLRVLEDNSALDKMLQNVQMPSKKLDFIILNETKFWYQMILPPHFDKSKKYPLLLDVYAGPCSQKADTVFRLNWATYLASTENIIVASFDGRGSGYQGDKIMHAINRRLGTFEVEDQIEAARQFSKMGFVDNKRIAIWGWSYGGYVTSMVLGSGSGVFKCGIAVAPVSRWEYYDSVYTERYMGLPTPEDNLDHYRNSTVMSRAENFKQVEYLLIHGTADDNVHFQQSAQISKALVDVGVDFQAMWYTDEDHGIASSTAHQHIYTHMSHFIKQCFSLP
T3 sequence (Q6V1X1 whole entry): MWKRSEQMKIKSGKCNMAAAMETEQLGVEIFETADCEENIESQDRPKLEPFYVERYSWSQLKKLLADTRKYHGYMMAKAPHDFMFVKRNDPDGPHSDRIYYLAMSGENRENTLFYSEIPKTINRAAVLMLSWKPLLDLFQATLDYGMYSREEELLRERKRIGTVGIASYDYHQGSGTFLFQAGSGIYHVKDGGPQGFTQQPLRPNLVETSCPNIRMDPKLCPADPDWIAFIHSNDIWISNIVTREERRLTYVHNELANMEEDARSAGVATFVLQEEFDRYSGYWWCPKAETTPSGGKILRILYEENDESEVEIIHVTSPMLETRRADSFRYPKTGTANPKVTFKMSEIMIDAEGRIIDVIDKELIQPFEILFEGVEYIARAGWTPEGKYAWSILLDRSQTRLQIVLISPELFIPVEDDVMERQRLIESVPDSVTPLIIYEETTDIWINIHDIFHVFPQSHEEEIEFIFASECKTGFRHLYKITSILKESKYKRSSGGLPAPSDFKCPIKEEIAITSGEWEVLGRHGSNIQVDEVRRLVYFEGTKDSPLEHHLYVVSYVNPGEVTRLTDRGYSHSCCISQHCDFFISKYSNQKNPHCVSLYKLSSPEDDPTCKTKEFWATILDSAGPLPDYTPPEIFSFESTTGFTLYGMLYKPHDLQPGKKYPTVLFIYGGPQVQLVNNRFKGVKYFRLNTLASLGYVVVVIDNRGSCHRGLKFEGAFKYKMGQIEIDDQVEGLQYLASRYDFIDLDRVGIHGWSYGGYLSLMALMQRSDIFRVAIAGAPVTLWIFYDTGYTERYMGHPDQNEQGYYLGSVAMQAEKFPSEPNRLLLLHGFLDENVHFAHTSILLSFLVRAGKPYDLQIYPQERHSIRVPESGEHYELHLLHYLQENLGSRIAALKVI
T2 sequence (Q86TI2 1-892 isoform Q86TI2-2): as the sequence (Q86TI2 1-892 isoform Q86TI2-2) above

Row | Substance | % DPP9 activity (Mean) (DPP9 [1]; [4]) [%] | % DPP9 activity (Mean) (DPP9 [1]; [5]) [%] | further results
1 | AAASLRFLYEG (SLRFLYEGAAA; EIL variant peptide) | 91.15 |  | 
2 | Acet-SLRFLFEG | 90.74 |  | 
3 | FEGQRIADNH (SLRFLFEGQRIAD; EIL peptide variant) |  | 97.12 | 
4 | FLFEGQRI (EIL peptide variant) |  | 48.41 | 
5 | H-SLRFLFAGQRIADNH |  | 5.093 | Ki (DPP9 [2]; [6]): 1.43 µM
6 | H-SLRFLFEG | 24.08 |  | Ki (DPP9 [2]; [6]): 2 µM
7 | H-SLRFLFEGQRIADNH |  | 27.45 | inhibition of DPPIV (DPPIV): not inhibited; degradation of GP-AMC in cytosolic extracts ([3]; HeLa cytosolic fractions, 0, 27.7 or 55.6 μM peptide): strongly reduced; binding of DPP9 to the SUMO1 beads after pre-incubation with peptide (DPP9-SUMO1 interaction): strongly reduced
8 | H-SLRFLYEGQRIADNH |  | 13.06 | Ki (DPP9 [2]; [6]): 2.56 µM
9 | LFEGQR (FLIEGQRI; EIL peptide variant) |  | 51 | 
10 | LFEGQRIADNH (EIL peptide variant) |  | 67.77 | 
11 | RRRRSLRFLFEG (RRRRSLRFLYAG; EIL variant peptide) | 92.2 |  | 
12 | SLRFLFEAQRIADNH (LRFLFEGQRIADNH; EIL peptide variant) |  | 19.46 | 
13 | SLRFLFEGQ (LRFLFEGQRIADN; EIL peptide variant) |  | 16.43 | 
14 | SLRFLFEGQR (EIL peptide variant) |  | 24.27 | 
15 | SLRFLFEGQRIADNH |  |  | Ki (DPP9 [2]; [6]): 7.32 µM; Ki (DPP9 [2]; read-out: Ki for DPP9): 7.4 µM; Ki (DPP8): 8.4 µM; stability of the peptide in cytosolic extracts ([3]; HeLa cytosolic extracts): stable in cytosolic extracts
16 | TLRFLFEG (SLRFLFEG; EIL variant peptide) | 29.2 |  | 

From US9593148B2, “DPP8 and DPP9 peptide inhibitors” (GEORG-AUGUST-UNIVERSITAT GOTTINGEN STIFTUNG OFFENTLICHEN …, priority 2012, dated 2017)
